The results in this text go back to patent US20250129070A1, “BIFUNCTIONAL ANDROGEN RECEPTOR COMPOUNDS” (priority 2023, published 2025).

As usually defined, the EC50 is the concentration that produces a half-maximal response. High values mean lower potency in that assay, low ones higher potency in that assay. One may read the IC50 as the concentration that inhibits the measured activity by half. Lower therefore signals higher potency.

For one assay, the system named is AR / CBP ternary complex. Nature of the assay: Ternary complex formation assay (sandwich ELISA, AR capture / CBP detection) in VCaP cell lysates. In kind it is cell-based. The settings on record: 1.5 hours treatment, sandwich ELISA (AR capture, CBP or p300 detection). The gist of the method:
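Anti-AR (AR 441)-coated plates capture AR from lysates of VCaP cells grown ≥3 days at 50K/well in 5% charcoal-stripped FBS, dosed with bifunctional for 1.5 h and lysed 30 min at 4 °C. Co-captured CBP/p300 is probed with rabbit mAb and HRP anti-rabbit, then QuantaRed fluorescence (570/585) is read at 0, 5 and 15 min.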

A further assay concerns VCaP cells. Nature of the assay: VCaP growth inhibition assay. In kind it is cell-based. The settings on record: 30 pM R1881, 9 days, CTG. The gist of the method: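 Growth read by CTG luminescence after 9-day exposure to compound (final 100 nM–10 fM, 1:5 steps) plus 30 pM R1881, in phenol red-free DMEM with 5% CSS. Cells pre-incubated 72 h before dosing; IC50 by nonlinear 4-parameter regression.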

In the case of `CC(=O)N1CCc2c(c(-c3cccc4cc(-c5ccc(CC6CC7(C6)CN(c6ncc(C(=O)NC8C(C)(C)C(Oc9ccc(C#N)c(Cl)c9)C8(C)C)cn6)C7)nc5)ncc34)nn2C2CCOCC2)C1` (stereo not shown) [Compound 228, 2-[6-[[5-[8-(5-acetyl-1-tetrahydropyran-4-yl-6,7-dihydro-4H-pyrazolo[4,3-c]pyridin-3-yl)-3-isoquinolyl]-2-pyridyl]methyl]-2-azaspiro[3.3]heptan-2-yl]-N-[3-(3-chloro-4-cyano-phenoxy)-2,2,4,4-tetramethyl-cyclobutyl]pyrimidine-5-carboxamide], the EC50 in the assay on AR / CBP ternary complex was in the range of 1 to 10 nM. The IC50 with VCaP cells lay in the range of 0.1 to 1 nM.
The compound `CC(=O)N1CCc2c(c(N3CCCc4cc(-c5cnn(C)c5)c(C(F)F)cc43)nn2C2CCN(C3CC4(CCC(Oc5ncc(C(=O)NC6C(C)(C)C(Oc7ccc(C#N)c(Cl)c7)C6(C)C)cn5)CC4)C3)CC2)C1` (stereo not shown) [Compound 395, 2-[2-[4-[5-acetyl-3-[7-(difluoromethyl)-6-(1-methylpyrazol-4-yl)-3,4-dihydro-2H-quinolin-1-yl]-6,7-dihydro-4H-pyrazolo[4,3-c]pyridin-1-yl]-1-piperidyl]spiro[3.5]nonan-7-yl]oxy-N-[3-(3-chloro-4-cyano-phenoxy)-2,2,4,4-tetramethyl-cyclobutyl]pyrimidine-5-carboxamide] displayed an EC50 in the assay with AR / CBP ternary complex below 1 nM. The same compound returned a 50% inhibitory concentration (IC50) in the assay with VCaP cells of 0.1 to 1 nM.
Compound `CC(=O)N1CCc2c(c(-c3cccc4cc(-c5ccc(C(=O)NCCc6ncc(C(=O)NC7C(C)(C)C(Oc8ccc(C#N)c(Cl)c8)C7(C)C)cn6)nc5)ncc34)nn2C2CCOCC2)C1` (stereo not shown) [Compound 78, 2-[2-[[5-[8-(5-acetyl-1-tetrahydropyran-4-yl-6,7-dihydro-4H-pyrazolo[4,3-c]pyridin-3-yl)-3-isoquinolyl]pyridine-2-carbonyl]amino]ethyl]-N-[3-(3-chloro-4-cyano-phenoxy)-2,2,4,4-tetramethyl-cyclobutyl]pyrimidine-5-carboxamide] showed an EC50 in the assay with AR / CBP ternary complex below 1 nM. The same compound had an IC50 with VCaP cells of 1 to 100 nM.
The compound `CC(=O)N1CCc2c(c(N3CCCc4cc(-c5cnn(C)c5)c(C(F)F)cc43)nn2C2CC3(C2)CN(C(=O)C2CC4(C2)CN(c2ncc(C(=O)NC5C(C)(C)C(Oc6ccc(C#N)c(Cl)c6)C5(C)C)cn2)C4)C3)C1` (stereo not shown) [Compound 217, 2-[6-[6-[5-acetyl-3-[7-(difluoromethyl)-6-(1-methylpyrazol-4-yl)-3,4-dihydro-2H-quinolin-1-yl]-6,7-dihydro-4H-pyrazolo[4,3-c]pyridin-1-yl]-2-azaspiro[3.3]heptane-2-carbonyl]-2-azaspiro[3.3]heptan-2-yl]-N-[3-(3-chloro-4-cyano-phenoxy)-2,2,4,4-tetramethyl-cyclobutyl]pyrimidine-5-carboxamide] had a concentration giving a half-maximal response (EC50) in the assay with AR / CBP ternary complex below 1 nM. In the assay on VCaP cells, this compound yielded an IC50 of 0.1 to 1 nM.
Compound `Cn1c(=O)sc2ccc(N3CCCc4cc(-c5ccc(CCC6CCN(c7ncc(C(=O)NC8C(C)(C)C(Oc9ccc(C#N)c(Cl)c9)C8(C)C)cn7)CC6)nc5)ncc43)cc21` (stereo not shown) [Compound 237, N-[3-(3-chloro-4-cyano-phenoxy)-2,2,4,4-tetramethyl-cyclobutyl]-2-[4-[2-[5-[1-(3-methyl-2-oxo-1,3-benzothiazol-5-yl)-3,4-dihydro-2H-1,7-naphthyridin-6-yl]-2-pyridyl]ethyl]-1-piperidyl]pyrimidine-5-carboxamide] yielded an EC50 with AR / CBP ternary complex below 1 nM. This compound came in with an IC50 with VCaP cells of 1 to 100 nM.
On the same counts, the results for `CC(=O)N1CCc2c(c(N3CCCc4cc(-c5cnn(C)c5)c(C(F)F)cc43)nn2CC2CCN(c3ncc(C(=O)NC4C(C)(C)C(Oc5ccc(C#N)c(Cl)c5)C4(C)C)cn3)CC2)C1` (stereo not shown) [Compound 53, 2-[4-[[5-acetyl-3-[7-(difluoromethyl)-6-(1-methylpyrazol-4-yl)-3,4-dihydro-2H-quinolin-1-yl]-6,7-dihydro-4H-pyrazolo[4,3-c]pyridin-1-yl]methyl]-1-piperidyl]-N-[3-(3-chloro-4-cyano-phenoxy)-2,2,4,4-tetramethyl-cyclobutyl]pyrimidine-5-carboxamide] are below 1 nM and above 100 nM.
Regarding `CC(=O)N1CCc2c(c(N3CCCc4cc(-c5cnn(C)c5)c(C(F)F)cc43)nn2C2CCN(C3CN(c4ncc(C(=O)NC5C(C)(C)C(Oc6ccc(C#N)c(Cl)c6)C5(C)C)cn4)C3)CC2)C1` (stereo not shown) [Compound 333, 2-[3-[4-[5-acetyl-3-[7-(difluoromethyl)-6-(1-methylpyrazol-4-yl)-3,4-dihydro-2H-quinolin-1-yl]-6,7-dihydro-4H-pyrazolo[4,3-c]pyridin-1-yl]-1-piperidyl]azetidin-1-yl]-N-[3-(3-chloro-4-cyano-phenoxy)-2,2,4,4-tetramethyl-cyclobutyl]pyrimidine-5-carboxamide], the EC50 in the assay on AR / CBP ternary complex is above 100 nM. The IC50 in the assay with VCaP cells was at most 0.1 nM.
Compound `COc1cc(OC2C(C)(C)C(NC(=O)c3ccc(N4CCN(C5CCN(c6ccc(-c7cc8cccc(-c9nn(C%10CCOCC%10)c%10c9CN(C(C)=O)CC%10)c8cn7)cn6)CC5)CC4)cc3)C2(C)C)ccc1C#N` (stereo not shown) [Compound 321, 4-[4-[1-[5-[8-(5-acetyl-1-tetrahydropyran-4-yl-6,7-dihydro-4H-pyrazolo[4,3-c]pyridin-3-yl)-3-isoquinolyl]-2-pyridyl]-4-piperidyl]piperazin-1-yl]-N-[3-(4-cyano-3-methoxy-phenoxy)-2,2,4,4-tetramethyl-cyclobutyl]benzamide] returned an EC50 in the assay on AR / CBP ternary complex below 1 nM. The compound further yielded an IC50 with VCaP cells of at most 0.1 nM.
On the same counts, the results for `CC(=O)N1CCc2c(c(N3CCCc4cc(-c5cnn(C)c5)c(C(F)F)cc43)nn2C2CCN(C(=O)C3CCN(c4ccc5c(n4)CN(C4C(C)(C)C(Oc6ccc(C#N)c(Cl)c6)C4(C)C)C5=O)CC3)CC2)C1` (stereo not shown) [Compound 299, 4-[3-[2-[4-[4-[5-acetyl-3-[7-(difluoromethyl)-6-(1-methylpyrazol-4-yl)-3,4-dihydro-2H-quinolin-1-yl]-6,7-dihydro-4H-pyrazolo[4,3-c]pyridin-1-yl]piperidine-1-carbonyl]-1-piperidyl]-5-oxo-7H-pyrrolo[3,4-b]pyridin-6-yl]-2,2,4,4-tetramethyl-cyclobutoxy]-2-chloro-benzonitrile] are below 1 nM and 0.1 to 1 nM.
The matching figures for `CC(=O)N1CCc2c(c(N3CCCc4cc(C#N)ccc43)nn2C2CCN(CC3CCN(c4ncc(C(=O)NC5C(C)(C)C(Oc6ccc(C#N)c(Cl)c6)C5(C)C)cn4)CC3)CC2)C1` (stereo not shown) [Compound 155, 2-[4-[[4-[5-acetyl-3-(6-cyano-3,4-dihydro-2H-quinolin-1-yl)-6,7-dihydro-4H-pyrazolo[4,3-c]pyridin-1-yl]-1-piperidyl]methyl]-1-piperidyl]-N-[3-(3-chloro-4-cyano-phenoxy)-2,2,4,4-tetramethyl-cyclobutyl]pyrimidine-5-carboxamide]: below 1 nM and 0.1 to 1 nM.
On the same counts, the results for `Cn1c(=O)n(C)c2cc(N3CCCc4cc(-c5ccc(CCC6CCN(c7ncc(C(=O)NC8C(C)(C)C(Oc9ccc(C#N)c(Cl)c9)C8(C)C)cn7)CC6)nc5)ncc43)ccc21` (stereo not shown) [Compound 234, N-[3-(3-chloro-4-cyano-phenoxy)-2,2,4,4-tetramethyl-cyclobutyl]-2-[4-[2-[5-[1-(1,3-dimethyl-2-oxo-benzimidazol-5-yl)-3,4-dihydro-2H-1,7-naphthyridin-6-yl]-2-pyridyl]ethyl]-1-piperidyl]pyrimidine-5-carboxamide] are 1 to 10 nM and above 100 nM.
`CC(=O)N1CCc2c(c(N3CCCc4ccc(C(F)F)cc43)nn2C2CCN(C(=O)C3CCN(c4ncc(C(=O)NC5C(C)(C)C(Oc6ccc(C#N)c(Cl)c6)C5(C)C)cn4)CC3)CC2)C1` (stereo not shown) [Compound 122, 2-[4-[4-[5-acetyl-3-[7-(difluoromethyl)-3,4-dihydro-2H-quinolin-1-yl]-6,7-dihydro-4H-pyrazolo[4,3-c]pyridin-1-yl]piperidine-1-carbonyl]-1-piperidyl]-N-[3-(3-chloro-4-cyano-phenoxy)-2,2,4,4-tetramethyl-cyclobutyl]pyrimidine-5-carboxamide]: in the assay with AR / CBP ternary complex, the EC50 is below 1 nM. The compound further yielded an IC50 in the assay on VCaP cells of at most 0.1 nM.
With `COc1cc(OC2C(C)(C)C(NC(=O)c3ccc(N4CCC(CN5CCC(n6nc(N7CCCc8cc(-c9cnn(C)c9)c(C(F)F)cc87)c7c6CCN(C(C)=O)C7)CC5)CC4)cc3)C2(C)C)ccc1C#N` (stereo not shown) [Compound 185, 4-[4-[[4-[5-acetyl-3-[7-(difluoromethyl)-6-(1-methylpyrazol-4-yl)-3,4-dihydro-2H-quinolin-1-yl]-6,7-dihydro-4H-pyrazolo[4,3-c]pyridin-1-yl]-1-piperidyl]methyl]-1-piperidyl]-N-[3-(4-cyano-3-methoxy-phenoxy)-2,2,4,4-tetramethyl-cyclobutyl]benzamide], in the assay on AR / CBP ternary complex, the EC50 is below 1 nM. Moreover, the IC50 in the assay on VCaP cells is at most 0.1 nM.
`COc1cc(OC2C(C)(C)C(NC(=O)c3ccc(N4CC[C@@H](N5CCC(n6nc(N7CCCc8cc(-c9cnn(C)c9)c(C(F)F)cc87)c7c6CCN(C(C)=O)C7)CC5)C4)cc3)C2(C)C)ccc1C#N` (stereo partly drawn) [Compound 337, 4-[(3R)-3-[4-[5-acetyl-3-[7-(difluoromethyl)-6-(1-methylpyrazol-4-yl)-3,4-dihydro-2H-quinolin-1-yl]-6,7-dihydro-4H-pyrazolo[4,3-c]pyridin-1-yl]-1-piperidyl]pyrrolidin-1-yl]-N-[3-(4-cyano-3-methoxy-phenoxy)-2,2,4,4-tetramethyl-cyclobutyl]benzamide]: the EC50 in the assay with AR / CBP ternary complex is below 1 nM. The compound further returned an IC50 in the assay on VCaP cells of 0.1 to 1 nM.
